These results are taken from PubChem BioAssay AID1745844 (Carcinogenic Potency Database (CPDB), 2022).

The series has as its system rodent lifetime carcinogenesis bioassay, tumor incidence TD50. Put plainly: carcinogenic potency in animals, long-term in vivo studies, CPDB compilation (AID 1745844).

Active and inactive are the calls of the source. The rule behind the calls is not given here.

What is called TD50 is the 50% point of the dose-response relation for the toxic effect studied.

For the compound `Cc1ccc(O)c(O)c1`, the TD50 is, setting by setting: (rat, strain F344/DuCrj, females, in feed, site: forestomach, lesion: squamous-cell carcinoma, dosed 104 weeks, study length 104 weeks) 1500 mg/kg/day; (rat, strain F344/DuCrj, females, in feed, site: forestomach, lesion: squamous-cell papilloma, dosed 104 weeks, study length 104 weeks) 253 mg/kg/day; (rat, strain F344/DuCrj, females, in feed, site: stomach, glandular, lesion: adenocarcinoma, dosed 104 weeks, study length 104 weeks) 1090 mg/kg/day; (rat, strain F344/DuCrj, females, in feed, site: stomach, glandular, lesion: sarcoma, dosed 104 weeks, study length 104 weeks) 6500 mg/kg/day; (rat, strain F344/DuCrj, males, in feed, site: forestomach, lesion: squamous-cell carcinoma, dosed 104 weeks, study length 104 weeks) 719 mg/kg/day; (rat, strain F344/DuCrj, males, in feed, site: forestomach, lesion: squamous-cell papilloma, dosed 104 weeks, study length 104 weeks) 468 mg/kg/day. Besides, the TD50 was 656 mg/kg/day (rat, strain F344/DuCrj, males, in feed, site: stomach, glandular, lesion: adenocarcinoma, dosed 104 weeks, study length 104 weeks) and 3830 mg/kg/day (rat, strain F344/DuCrj, males, in feed, site: stomach, glandular, lesion: sarcoma, dosed 104 weeks, study length 104 weeks). Besides, the carcinogen call by setting is: (rat, strain F344/DuCrj, females, in feed, site: stomach, glandular, lesion: adenoma, dosed 104 weeks, study length 104 weeks) “positive”; (rat, strain F344/DuCrj, males, in feed, site: stomach, glandular, lesion: adenoma, dosed 104 weeks, study length 104 weeks) “positive”.
Take `CCN(Cc1cccc(S(=O)(=O)O)c1)c1ccc(C(=C2C=CC(=[N+](CC)Cc3cccc(S(=O)(=O)O)c3)C=C2)c2ccccc2S(=O)(=O)[O-])cc1`: the carcinogen call is “negative (inactive)” (mouse, strain Charles River CD1, females, in feed, site: liver, lesion: hemangioma, dosed 104 weeks, study length 104 weeks); “negative (inactive)” (mouse, strain Charles River CD1, females, in feed, site: lung, lesion: alveolar-cell adenoma, dosed 104 weeks, study length 104 weeks); “negative (inactive)” (mouse, strain Charles River CD1, females, in feed, site: lung, lesion: bronchiolar adenocarcinoma, dosed 104 weeks, study length 104 weeks); “negative (inactive)” (mouse, strain Charles River CD1, males, in feed, site: liver, lesion: hemangiosarcoma, dosed 104 weeks, study length 104 weeks); “negative (inactive)” (mouse, strain Charles River CD1, males, in feed, site: liver, lesion: hepatocellular carcinoma, dosed 104 weeks, study length 104 weeks); “negative (inactive)” (mouse, strain Charles River CD1, males, in feed, site: lung, lesion: alveogenic adenocarcinoma, dosed 104 weeks, study length 104 weeks). The carcinogen call was “negative (inactive)” (mouse, strain Charles River CD1, males, in feed, site: lung, lesion: alveolar-cell adenoma, dosed 104 weeks, study length 104 weeks); “negative (inactive)” (mouse, strain Charles River CD1, males, in feed, site: lung, lesion: alveolar-cell carcinoma, dosed 104 weeks, study length 104 weeks); “negative (inactive)” (rat, strain Osborne-Mendel, both sexes, in feed, site: any site (literature study), lesion: several types, types named in the paper, dosed 104 weeks, study length 104 weeks). Also, the TD50 is 372000 mg/kg/day (inactive) (mouse, strain Charles River CD1, females, in feed, site: lung, lesion: adenocarcinoma, dosed 104 weeks, study length 104 weeks); 607000 mg/kg/day (inactive) (mouse, strain Charles River CD1, females, in feed, site: lung, lesion: alveolar-cell carcinoma, dosed 104 weeks, study length 104 weeks); 856000 mg/kg/day (inactive) (mouse, strain Charles River CD1, females, in feed, site: lung, lesion: bronchiolar adenoma, dosed 104 weeks, study length 104 weeks); 293000 mg/kg/day (inactive) (mouse, strain Charles River CD1, males, in feed, site: lung, lesion: adenocarcinoma, dosed 104 weeks, study length 104 weeks); 343000 mg/kg/day (inactive) (mouse, strain Charles River CD1, males, in feed, site: lung, lesion: bronchiolar adenocarcinoma, dosed 104 weeks, study length 104 weeks); 91100 mg/kg/day (inactive) (mouse, strain Charles River CD1, males, in feed, site: lung, lesion: bronchiolar adenoma, dosed 104 weeks, study length 104 weeks). This compound also registered a TD50 (rat, strain Osborne-Mendel, both sexes, in feed, site: liver, lesion: hepatoma, dosed 104 weeks, study length 104 weeks) of 62100 mg/kg/day.
For the compound `CC(=O)[O-].CC(=O)[O-].[OH-].[OH-].[OH-].[OH-].[Pb+2].[Pb+2].[Pb+2]`, the carcinogen call is, setting by setting: (mouse, strain Swiss, females, in feed, site: kidney, lesion: adenoma, dosed 104 weeks, study length 104 weeks) “positive”; (rat, strain Sprague-Dawley, males, in feed, site: liver, lesion: one or several types, types not named, dosed 79 weeks, study length 79 weeks) “negative (inactive)”. Besides, the TD50 is, setting by setting: (mouse, strain Swiss, females, in feed, site: kidney, lesion: carcinoma, dosed 104 weeks, study length 104 weeks) 14800 mg/kg/day; (mouse, strain Swiss, males, in feed, site: kidney, lesion: adenoma, dosed 86 weeks, study length 104 weeks) 986 mg/kg/day; (mouse, strain Swiss, males, in feed, site: kidney, lesion: carcinoma, dosed 86 weeks, study length 104 weeks) 472 mg/kg/day; (rat, strain Sprague-Dawley, males, in feed, site: kidney, lesion: several types, types named in the paper, dosed 79 weeks, study length 79 weeks) 266 mg/kg/day; (rat, strain Wistar, females, in feed, site: kidney, lesion: several types, types named in the paper, dosed 104 weeks, study length 104 weeks) 339 mg/kg/day; (rat, strain Wistar, females, in feed, site: kidney, lesion: several types, types named in the paper, dosed 126 weeks, study length 126 weeks) 107 mg/kg/day. Besides, the TD50 runs as follows: (rat, strain Wistar, males, in feed, site: kidney, lesion: several types, types named in the paper, dosed 104 weeks, study length 104 weeks) 443 mg/kg/day; (rat, strain Wistar, males, in feed, site: kidney, lesion: several types, types named in the paper, dosed 126 weeks, study length 126 weeks) 107 mg/kg/day.
Turning to `OO`, the TD50 (mouse, strain C57BL/6J, females, in drinking water, site: duodenum, lesion: adenoma, dosed 100 weeks, study length 100 weeks) turned out to be 2010 mg/kg/day; the TD50 (mouse, strain C57BL/6J, females, in drinking water, site: duodenum, lesion: carcinoma, dosed 100 weeks, study length 100 weeks) was 7540 mg/kg/day; the TD50 (mouse, strain C57BL/6J, females, in drinking water, site: duodenum, lesion: several types, types named in the paper, dosed 100 weeks, study length 100 weeks) amounted to 7830 mg/kg/day; the TD50 (mouse, strain C57BL/6J, males, in drinking water, site: duodenum, lesion: adenoma, dosed 100 weeks, study length 100 weeks) turned out to be 7350 mg/kg/day; the TD50 (mouse, strain C57BL/6J, males, in drinking water, site: duodenum, lesion: carcinoma, dosed 100 weeks, study length 100 weeks) came to 15000 mg/kg/day; the TD50 (mouse, strain C57BL/6J, males, in drinking water, site: duodenum, lesion: several types, types named in the paper, dosed 100 weeks, study length 100 weeks) came out at 4800 mg/kg/day.
As to `C=C/C=N/O`, the TD50 runs as follows: (rat, strain Fischer 344, females, in drinking water, site: liver, lesion: hepatocellular carcinoma, dosed 104 weeks, study length 129 weeks) 104 mg/kg/day; (rat, strain Fischer 344, females, in drinking water, site: liver, lesion: hyperplastic nodule, dosed 30 weeks, study length 123 weeks) 41.9 mg/kg/day; (rat, strain Fischer 344, females, in drinking water, site: liver, lesion: hyperplastic nodule, dosed 104 weeks, study length 129 weeks) 43.8 mg/kg/day; (rat, strain Fischer 344, females, in drinking water, site: liver, lesion: several types, types named in the paper, dosed 104 weeks, study length 129 weeks) 27.1 mg/kg/day; (rat, strain Fischer 344, males, in drinking water, site: liver, lesion: hepatocellular carcinoma, dosed 30 weeks, study length 123 weeks) 50.7 mg/kg/day; (rat, strain Fischer 344, males, in drinking water, site: liver, lesion: hepatocellular carcinoma, dosed 104 weeks, study length 128 weeks) 72.6 mg/kg/day. The TD50 amounted to 29.3 mg/kg/day (rat, strain Fischer 344, males, in drinking water, site: liver, lesion: hyperplastic nodule, dosed 30 weeks, study length 123 weeks); 64.9 mg/kg/day (rat, strain Fischer 344, males, in drinking water, site: liver, lesion: hyperplastic nodule, dosed 104 weeks, study length 128 weeks); 16.4 mg/kg/day (rat, strain Fischer 344, males, in drinking water, site: liver, lesion: several types, types named in the paper, dosed 30 weeks, study length 123 weeks); 30.4 mg/kg/day (rat, strain Fischer 344, males, in drinking water, site: liver, lesion: several types, types named in the paper, dosed 104 weeks, study length 128 weeks).
As to `C#C[C@]1(O)CC[C@H]2[C@@H]3CCc4cc(O)ccc4[C@H]3CC[C@@]21C`, the TD50 (rat, strain Slc-Wistar, females, by gavage, site: liver, lesion: hepatocellular carcinoma, dosed 52 weeks, study length 52 weeks) is 0.2 mg/kg/day.
On to `OC[P+](CO)(CO)CO`, for which the TD50 is 908 mg/kg/day (inactive) (mouse, strain B6C3F1, females, by gavage, site: any site (literature study), lesion: several types, types named in the paper, dosed 103 weeks, study length 104 weeks); 200 mg/kg/day (mouse, strain B6C3F1, females, by gavage, site: liver, lesion: hepatocellular adenoma + hepatocellular carcinoma + neoplastic nodule, dosed 103 weeks, study length 104 weeks); 234 mg/kg/day (mouse, strain B6C3F1, females, by gavage, site: lung, lesion: alveolar/bronchiolar adenoma + alveolar/bronchiolar carcinoma, dosed 104 weeks, study length 105 weeks); 15.7 mg/kg/day (inactive) (mouse, strain B6C3F1, females, by gavage, site: multiple organs, lesion: malignant lymphoma, mixed type, dosed 104 weeks, study length 105 weeks); 47.3 mg/kg/day (mouse, strain B6C3F1, males, by gavage, site: any site (literature study), lesion: several types, types named in the paper, dosed 104 weeks, study length 105 weeks); 103 mg/kg/day (mouse, strain B6C3F1, males, by gavage, site: lung, lesion: alveolar/bronchiolar adenoma + alveolar/bronchiolar carcinoma, dosed 103 weeks, study length 104 weeks). Also, the TD50 is 78.5 mg/kg/day (mouse, strain B6C3F1, males, by gavage, site: lung, lesion: alveolar/bronchiolar adenoma + alveolar/bronchiolar carcinoma, dosed 104 weeks, study length 105 weeks); 11.4 mg/kg/day (inactive) (mouse, strain B6C3F1, males, by gavage, site: multiple organs, lesion: malignant lymphoma, histiocytic type + malignant lymphoma, mixed type + malignant lymphoma, lymphocytic type + malignant lymph, dosed 104 weeks, study length 105 weeks); 4.78 mg/kg/day (inactive) (rat, strain Fischer 344, females, by gavage, site: any site (literature study), lesion: several types, types named in the paper, dosed 103 weeks, study length 104 weeks); 23.3 mg/kg/day (inactive) (rat, strain Fischer 344, females, by gavage, site: any site (literature study), lesion: several types, types named in the paper, dosed 104 weeks, study length 106 weeks); 14.7 mg/kg/day (rat, strain Fischer 344, males, by gavage, site: any site (literature study), lesion: several types, types named in the paper, dosed 103 weeks, study length 104 weeks); 1.78 mg/kg/day (rat, strain Fischer 344, males, by gavage, site: any site (literature study), lesion: several types, types named in the paper, dosed 104 weeks, study length 106 weeks). Moreover, the TD50 was 24.5 mg/kg/day (rat, strain Fischer 344, males, by gavage, site: liver, lesion: hepatocellular adenoma + hepatocellular carcinoma + neoplastic nodule, dosed 103 weeks, study length 104 weeks); 12.4 mg/kg/day (rat, strain Fischer 344, males, by gavage, site: liver, lesion: hepatocellular adenoma + hepatocellular carcinoma + neoplastic nodule, dosed 104 weeks, study length 106 weeks); 2.42 mg/kg/day (inactive) (rat, strain Fischer 344, males, by gavage, site: multiple organs, lesion: mononuclear-cell leukemia, dosed 104 weeks, study length 106 weeks); 3.3 mg/kg/day (rat, strain Fischer 344, males, by gavage, site: pituitary gland, anterior, lesion: adenoma, NOS + carcinoma, NOS, dosed 104 weeks, study length 106 weeks); 3.56 mg/kg/day (rat, strain Fischer 344, males, by gavage, site: pituitary gland, anterior, lesion: adenoma, NOS, dosed 104 weeks, study length 106 weeks); 24.9 mg/kg/day (inactive) (rat, strain Fischer 344, males, by gavage, site: subcutaneous tissue, lesion: fibroma, dosed 103 weeks, study length 104 weeks). The carcinogen call (mouse, strain B6C3F1, males, by gavage, site: any site (literature study), lesion: several types, types named in the paper, dosed 103 weeks, study length 104 weeks) is “negative (inactive)”.
